Data from publication PMC11617484, “A Small Molecule Agonist of Krüppel-Like Factor 15 in Proteinuric Kidney Disease” (Journal of the American Society of Nephrology : JASN, 2024).

Target: T1, inhibitor of nuclear factor kappa-B kinase subunit beta (IKKβ) (Homo sapiens, UniProt O14920)
T1 construct: gene IKBKB
T1 sequence (O14920 1-756): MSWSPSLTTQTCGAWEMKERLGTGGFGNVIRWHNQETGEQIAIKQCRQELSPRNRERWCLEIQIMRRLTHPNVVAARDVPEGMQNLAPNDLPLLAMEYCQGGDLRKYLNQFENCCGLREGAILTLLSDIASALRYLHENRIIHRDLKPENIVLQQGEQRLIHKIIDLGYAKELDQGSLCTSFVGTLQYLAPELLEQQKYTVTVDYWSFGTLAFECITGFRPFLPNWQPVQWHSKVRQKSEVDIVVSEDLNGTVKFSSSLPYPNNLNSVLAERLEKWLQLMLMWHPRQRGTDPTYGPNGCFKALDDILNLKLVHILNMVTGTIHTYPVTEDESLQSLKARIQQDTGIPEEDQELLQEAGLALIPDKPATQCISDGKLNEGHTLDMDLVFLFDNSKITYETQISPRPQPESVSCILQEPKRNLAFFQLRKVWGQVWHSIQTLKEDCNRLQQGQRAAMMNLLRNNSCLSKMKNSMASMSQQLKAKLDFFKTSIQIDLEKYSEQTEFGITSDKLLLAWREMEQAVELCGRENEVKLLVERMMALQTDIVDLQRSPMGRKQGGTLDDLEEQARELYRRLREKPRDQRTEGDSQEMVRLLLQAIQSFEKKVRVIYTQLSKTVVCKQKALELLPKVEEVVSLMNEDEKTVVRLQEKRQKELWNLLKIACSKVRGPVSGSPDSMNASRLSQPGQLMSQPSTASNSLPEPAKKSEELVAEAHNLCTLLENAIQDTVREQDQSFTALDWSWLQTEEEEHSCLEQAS
Test: IKKβ kinase activity assay (dose response, ATP dependence, M96V gatekeeper resistance); supported by cellular thermal shift assay in human podocytes
Type: biochemical

For `CSc1ccc(NC(=O)Nc2ccc(C)nc2)cc1` [BT503], the IC50 was 163 nM.
